Laboratory results published in patent US20050192243A1, “Neuromuscular blocking agents and antagonists thereof” (priority 2003, published 2005).

Experiments:
Rhesus monkeys [1] = assay: Recovery of twitch response from GW 280430A neuromuscular block with or without cysteine-like antagonist; assay type: in vivo
Method: Rhesus monkeys were anesthetized with ketamine (5 mg/Kg) and thiopental (5 mg/Kg) given intramuscularly or intravenously. Anesthesia was maintained with a mixture of halothane (1.5%), nitrous oxide (60%) and oxygen (40%). The common peroneal nerve was stimulated supramaximally with square wave pulses of 0.2 m sec duration at a rate of 0.15 Hz. Twitch contractions were recorded via the tendon of the extensor digitorum muscle.
In all animals, the trachea was intubated and ventilation was controlled at 12-15 ml/kg, 18-24 breaths per minute. A peripheral vein and artery were cannulated for drug administration and for recording or arterial pressure, respectively.
Rhesus monkeys were anesthetized and treated with a halofumarate neuromuscular blocking agent as described in Example 1.
Several tests were generally run (#1, #2, #3, etc.) with time in between each test so that the animal could recover.

Rhesus monkeys [2] = details: GW 280430A-treated animals
Rhesus monkeys [3] = system: Rhesus monkeys
Method: Rhesus monkeys were anesthetized with ketainine (5 mg/Kg) and thiopental (5 mg/Kg) given intramuscularly or intravenously. Anesthesia was maintained with a mixture of halothane (1.5%), nitrous oxide (60%) and oxygen (40%). The common peroneal nerve was stimulated supramaximally with square wave pulses of 0.2 m sec duration at a rate of 0.15 Hz. Twitch contractions were recorded via the tendon of the extensor digitorum muscle.
In all animals, the trachea was intubated and ventilation was controlled at 12-15 ml/kg, 18-24 breaths per minute. A peripheral vein and artery were cannulated for drug administration and for recording of arterial pressure, respectively. A dosage of 0.1 mg/kg of the 353044 intermediate duration halofumarate neuromuscular blocking agent was administered intravenously. The 353044 intermediate duration halofumarate neuromuscular blocking agent has the following structure, wherein X is Cl. [drawing 11]
For comparison, 0.5 mg/kg of the ultra-short 280430A halofumarate neuromuscular blocking agent was administered to a separate set of animals. […] Animals that had received the 353044 intermediate duration halofumarate neuromuscular blocking agent, then received a combination of […] 10 mg/kg glutathione.

[4] = #4 (after 3 administrations of 430A), 0.05 mg/kg 430A & cysteine 5 mg/kg
[5] = #4 (after 3 administrations of 430A), 0.05 mg/kg 430A & cysteine 10 mg/kg
[6] = Buck 13.2, 0.2 mg/kg 430A & cysteine 10.0 mg/kg
[7] = Count 13.1 kg, #4, 0.2 mg/kg 430A & cysteine 4 mg/kg
[8] = Impy 12.5 kg, #2, 0.05 mg/kg 430A & cysteine 5 mg/kg
[9] = Means of Skye, Impy & Count, 0.05 mg/kg 430A & cysteine 4 or 5 mg/kg
[10] = Means of Skye, Impy and Buck, 430A & Cysteine 10 mg/kg
[11] = Morgan 12.4 kg, #3, 0.1 mg/kg 430A & cysteine 20 mg/kg
[12] = Skye 11.6 kg, 0.2 mg/kg 430A & cysteine 10.0 mg/kg
[13] = Skye 12.1 kg, #2, 0.05 mg/kg 430A & cysteine 2 mg/kg
[14] = 5 mg/kg antagonist after GW 280430A, FIG. 4, FIG. 5
[15] = Buck 13.2, Baseline (430A, no cysteine)
[16] = Count 13.1 kg, #3, 0.2 mg/kg 430A alone
[17] = Impy 12.5 kg, #1, 0.05 mg/kg 430A alone
[18] = Impy 12.5 kg, #3, 0.05 mg/kg 430A alone
[19] = Means of Skye, Impy & Count, Baseline (430A, no cysteine)
[20] = Means of Skye, Impy and Buck, Baseline (430A, no cysteine)
[21] = Morgan 12.4 kg, #1, 0.05 mg/kg 430A alone
[22] = Morgan 12.4 kg, #2, 0.01 mg/kg 430A alone
[23] = Skye 11.6 kg, Baseline (430A, no cysteine)
[24] = Skye 12.1 kg, #1, 0.05 mg/kg 430A alone
[25] = Skye 12.1 kg, #3, 0.05 mg/kg 430A alone

SMILES: N[C@@H](CS)C(=O)O [cysteine]
- time to complete reversal of the block in neuromuscular activity after administration (Rhesus monkeys [1]; 5 mg/kg cysteine after GW 280430A, FIG. 3): ≤ 100 s
- 25-75% recovery interval (Rhesus monkeys [1]; [4]): 63 s
- Recovery 5-95% (Rhesus monkeys [1]; [4]): 237 s
- time to 5% twitch recovery (Rhesus monkeys [1]; [4]): 15 s
- time to 25% twitch recovery (Rhesus monkeys [1]; [4]): 39 s
- time to 75% twitch recovery (Rhesus monkeys [1]; [4]): 102 s
- time to 95% twitch recovery (Rhesus monkeys [1]; [4]): 252 s
- 25-75% recovery interval (Rhesus monkeys [1]; [5]): 15 s
- Recovery 5-95% (Rhesus monkeys [1]; [5]): 96 s
- time to 5% twitch recovery (Rhesus monkeys [1]; [5]): 18 s
- time to 25% twitch recovery (Rhesus monkeys [1]; [5]): 51 s
- time to 75% twitch recovery (Rhesus monkeys [1]; [5]): 66 s
- time to 95% twitch recovery (Rhesus monkeys [1]; [5]): 114 s
- 25-75% recovery interval (Rhesus monkeys [1]; [6]): 2 s
- Recovery 5-95% (Rhesus monkeys [1]; [6]): 42 s
- time to 5% twitch recovery (Rhesus monkeys [1]; [6]): 6 s
- time to 25% twitch recovery (Rhesus monkeys [1]; [6]): 24 s
- time to 75% twitch recovery (Rhesus monkeys [1]; [6]): 26 s
- time to 95% twitch recovery (Rhesus monkeys [1]; [6]): 48 s
- Recovery 5% (Rhesus monkeys [1]; [7]): 9 s
- Recovery 5-95% (Rhesus monkeys [1]; [7]): 27 s
- Recovery 25% (Rhesus monkeys [1]; [7]): 15 s
- Recovery 25-75% (Rhesus monkeys [1]; [7]): 15 s
- Recovery 75% (Rhesus monkeys [1]; [7]): 30 s
- Recovery 95% (Rhesus monkeys [1]; [7]): 36 s
- Recovery 5% (Rhesus monkeys [1]; [8]): 6 s
- Recovery 5-95% (Rhesus monkeys [1]; [8]): 90 s
- Recovery 25% (Rhesus monkeys [1]; [8]): 33 s
- Recovery 25-75% (Rhesus monkeys [1]; [8]): 15 s
- Recovery 75% (Rhesus monkeys [1]; [8]): 48 s
- Recovery 95% (Rhesus monkeys [1]; [8]): 96 s
- 25-75% recovery interval (Rhesus monkeys [1]; [9]): 31 s
- time to 5% twitch recovery (Rhesus monkeys [1]; [9]): 10 s
- time to 25% twitch recovery (Rhesus monkeys [1]; [9]): 29 s
- time to 75% twitch recovery (Rhesus monkeys [1]; [9]): 60 s
- time to 95% twitch recovery (Rhesus monkeys [1]; [9]): 125 s
- 25-75% recovery interval (Rhesus monkeys [1]; [10]): 12 s
- Recovery 5-95% (Rhesus monkeys [1]; [10]): 76 s
- time to 5% twitch recovery (Rhesus monkeys [1]; [10]): 10 s
- time to 25% twitch recovery (Rhesus monkeys [1]; [10]): 31 s
- time to 75% twitch recovery (Rhesus monkeys [1]; [10]): 43 s
- time to 95% twitch recovery (Rhesus monkeys [1]; [10]): 86 s
- Recovery 5% (Rhesus monkeys [1]; [11]): 24 s
- Recovery 5-95% (Rhesus monkeys [1]; [11]): 144 s
- Recovery 25% (Rhesus monkeys [1]; [11]): 42 s
- Recovery 25-75% (Rhesus monkeys [1]; [11]): 24 s
- Recovery 75% (Rhesus monkeys [1]; [11]): 66 s
- Recovery 95% (Rhesus monkeys [1]; [11]): 168 s
- 25-75% recovery interval (Rhesus monkeys [1]; [12]): 18 s
- Recovery 5-95% (Rhesus monkeys [1]; [12]): 90 s
- time to 5% twitch recovery (Rhesus monkeys [1]; [12]): 6 s
- time to 25% twitch recovery (Rhesus monkeys [1]; [12]): 18 s
- time to 75% twitch recovery (Rhesus monkeys [1]; [12]): 36 s
- time to 95% twitch recovery (Rhesus monkeys [1]; [12]): 96 s
- Recovery 5% (Rhesus monkeys [1]; [13]): 10 s
- Recovery 5-95% (Rhesus monkeys [1]; [13]): 208 s
- Recovery 25% (Rhesus monkeys [1]; [13]): 35 s
- Recovery 25-75% (Rhesus monkeys [1]; [13]): 65 s
- Recovery 75% (Rhesus monkeys [1]; [13]): 100 s
- Recovery 95% (Rhesus monkeys [1]; [13]): 218 s
- side effects at highest dosage tested (Rhesus monkeys [2]; cysteine 20 mg/kg): no negative side effects
- effect on blood pressure or heart rate (Rhesus monkeys [2]; cysteine, therapeutic range (5-10 mg/Kg), FIG. 2): no significant affect on blood pressure or heart rate

SMILES: N[C@@H](CCC(=O)N[C@@H](CS)C(=O)NCC(=O)O)C(=O)O [glutathione]
- time to complete reversal of the block in neuromuscular activity after administration (Rhesus monkeys [1]; [14]): ≤ 140 s

SMILES: CC(=O)N[C@@H](CS)C(=O)O [N-acetylcysteine, reference compound]
- time to complete reversal of the block in neuromuscular activity after administration (Rhesus monkeys [1]; [14]): ≤ 165 s

SMILES: COc1cc2c(cc1OC)[C@H](c1cc(OC)c(OC)c(OC)c1)[N@@+](C)(CCCOC(=O)/C=C(\Cl)C(=O)OCCC[N@+]1(C)CCc3cc(OC)c(OC)cc3[C@H]1Cc1cc(OC)c(OC)c(OC)c1)CC2.[Cl-].[Cl-] [GW 280430A, (Z)-2-Chloro-4-{3-[(1S,2R)-6,7-dimethoxy-2-methyl-1-(3,4,5-trimethoxyphenyl)-1,2,3,4-tetrahydro-2-isoquinolinio]propyl}-1-{3{(1R,2S)-6,7-dimethoxy-2-methyl-1-[(3,4,5-trimethoxyphenyl)methyl]-1,2,3,4-tetrahydro-2-isoquinolinio}propyl}-2-butenedioate dichloride]
- 25-75% recovery interval (Rhesus monkeys [1]; [15]): 54 s
- Recovery 5-95% (Rhesus monkeys [1]; [15]): 114 s
- time to 5% twitch recovery (Rhesus monkeys [1]; [15]): 12 s
- time to 25% twitch recovery (Rhesus monkeys [1]; [15]): 48 s
- time to 75% twitch recovery (Rhesus monkeys [1]; [15]): 102 s
- time to 95% twitch recovery (Rhesus monkeys [1]; [15]): 126 s
- Recovery 5% (Rhesus monkeys [1]; [16]): 9 s
- Recovery 5-95% (Rhesus monkeys [1]; [16]): 75 s
- Recovery 25% (Rhesus monkeys [1]; [16]): 24 s
- Recovery 25-75% (Rhesus monkeys [1]; [16]): 33 s
- Recovery 75% (Rhesus monkeys [1]; [16]): 57 s
- Recovery 95% (Rhesus monkeys [1]; [16]): 84 s
- Recovery 5% (Rhesus monkeys [1]; [17]): 30 s
- Recovery 5-95% (Rhesus monkeys [1]; [17]): 141 s
- Recovery 25% (Rhesus monkeys [1]; [17]): 63 s
- Recovery 25-75% (Rhesus monkeys [1]; [17]): 57 s
- Recovery 75% (Rhesus monkeys [1]; [17]): 120 s
- Recovery 95% (Rhesus monkeys [1]; [17]): 171 s
- Recovery 75% (Rhesus monkeys [1]; [18]): 45 s
- Recovery 95% (Rhesus monkeys [1]; [18]): 78 s
- 25-75% recovery interval (Rhesus monkeys [1]; [19]): 75 s
- Recovery 5-95% (Rhesus monkeys [1]; [19]): 193 s
- time to 5% twitch recovery (Rhesus monkeys [1]; [19]): 16 s
- time to 25% twitch recovery (Rhesus monkeys [1]; [19]): 46 s
- time to 75% twitch recovery (Rhesus monkeys [1]; [19]): 121 s
- time to 95% twitch recovery (Rhesus monkeys [1]; [19]): 209 s
- 25-75% recovery interval (Rhesus monkeys [1]; [20]): 77 s
- Recovery 5-95% (Rhesus monkeys [1]; [20]): 193 s
- time to 5% twitch recovery (Rhesus monkeys [1]; [20]): 22 s
- time to 25% twitch recovery (Rhesus monkeys [1]; [20]): 61 s
- time to 75% twitch recovery (Rhesus monkeys [1]; [20]): 138 s
- time to 95% twitch recovery (Rhesus monkeys [1]; [20]): 215 s
- Recovery 25% (Rhesus monkeys [1]; [21]): 40 s
- Recovery 25-75% (Rhesus monkeys [1]; [21]): 103 s
- Recovery 75% (Rhesus monkeys [1]; [21]): 143 s
- Recovery 95% (Rhesus monkeys [1]; [21]): 233 s
- Recovery 5% (Rhesus monkeys [1]; [22]): 30 s
- Recovery 5-95% (Rhesus monkeys [1]; [22]): 282 s
- Recovery 25% (Rhesus monkeys [1]; [22]): 42 s
- Recovery 25-75% (Rhesus monkeys [1]; [22]): 144 s
- Recovery 75% (Rhesus monkeys [1]; [22]): 186 s
- Recovery 95% (Rhesus monkeys [1]; [22]): 312 s
- 25-75% recovery interval (Rhesus monkeys [1]; [23]): 120 s
- Recovery 5-95% (Rhesus monkeys [1]; [23]): 324 s
- time to 5% twitch recovery (Rhesus monkeys [1]; [23]): 24 s
- time to 25% twitch recovery (Rhesus monkeys [1]; [23]): 72 s
- time to 75% twitch recovery (Rhesus monkeys [1]; [23]): 192 s
- time to 95% twitch recovery (Rhesus monkeys [1]; [23]): 348 s
- Recovery 5% (Rhesus monkeys [1]; [24]): 9 s
- Recovery 5-95% (Rhesus monkeys [1]; [24]): 363 s
- Recovery 25% (Rhesus monkeys [1]; [24]): 51 s
- Recovery 25-75% (Rhesus monkeys [1]; [24]): 135 s
- Recovery 75% (Rhesus monkeys [1]; [24]): 186 s
- Recovery 95% (Rhesus monkeys [1]; [24]): 372 s
- Recovery 25% (Rhesus monkeys [1]; [25]): 143 s
- Recovery 25-75% (Rhesus monkeys [1]; [25]): 122 s
- Recovery 75% (Rhesus monkeys [1]; [25]): 265 s
- Recovery 95% (Rhesus monkeys [1]; [25]): 368 s
- speed of recovery compared with 353044, with antagonist (Rhesus monkeys [3]; 0.50 mg/kg GW 280430A + 5 mg/kg cysteine vs 0.10 mg/kg 353044 + cysteine and glutathione, FIG. 9): again faster
- speed of recovery compared with 353044, no antagonist (Rhesus monkeys [3]; 0.50 mg/kg GW 280430A vs 0.10 mg/kg 353044, FIG. 9 solid lines): recovered faster
